Source: the supplement of paper PMC10721915
± gives the standard deviation of the averaged measurements.

Compound: COc1ccc([C@@H](O)c2cc(-c3ncnc4cc(N5CCOCC5)ccc34)c(F)cc2Cl)nn1 [peposertib]
Experiment: relative cell growth vs untreated control (GI, NCI-DTP normalisation with time-zero) (fraction of control growth); higher = more growth / less inhibition
Settings: treatment time: 120 h
Protocol: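 Cancer cell lines were treated with peposertib (DNA-PK inhibitor) combined with gamma ionizing radiation (0, 2, 3 or 6 Gy) for 120 h, starting 48 h after seeding. Read-out was sulforhodamine B total-protein staining, normalised to untreated control and time-zero wells (NCI-DTP GI convention).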

[1] = peposertib concentration 0.00488 µM, gamma irradiation dose (Gy): 0
[2] = peposertib concentration 0.00488 µM, gamma irradiation dose (Gy): 3
[3] = peposertib concentration 0.0195 µM, gamma irradiation dose (Gy): 0
[4] = peposertib concentration 0.0195 µM, gamma irradiation dose (Gy): 3
[5] = peposertib concentration 0.0781 µM, gamma irradiation dose (Gy): 0
[6] = peposertib concentration 0.0781 µM, gamma irradiation dose (Gy): 3
[7] = peposertib concentration 0.313 µM, gamma irradiation dose (Gy): 0
[8] = peposertib concentration 0.313 µM, gamma irradiation dose (Gy): 3
[9] = peposertib concentration 1.25 µM, gamma irradiation dose (Gy): 0
[10] = peposertib concentration 1.25 µM, gamma irradiation dose (Gy): 3
[11] = peposertib concentration 5 µM, gamma irradiation dose (Gy): 0
[12] = peposertib concentration 5 µM, gamma irradiation dose (Gy): 3

## NCIH358M
[1]
  relative cell growth: 1.004 ± 0.01
[2]
  relative cell growth: 0.299
[3]
  relative cell growth: 0.975 ± 0.03
[4]
  relative cell growth: 0.27
[5]
  relative cell growth: 0.963 ± 0.03
[6]
  relative cell growth: 0.182
[7]
  relative cell growth: 0.869 ± 0.1
[8]
  relative cell growth: 0.181
[9]
  relative cell growth: 0.695 ± 0.16
[10]
  relative cell growth: 0.108
[11]
  relative cell growth: 0.345 ± 0.078
[12]
  relative cell growth: 0.0702

## NCIH460
[1]
  relative cell growth: 1.05 ± 0.025
[2]
  relative cell growth: 0.302
[3]
  relative cell growth: 1.04 ± 0.02
[4]
  relative cell growth: 0.384
[5]
  relative cell growth: 1.02 ± 0.025
[6]
  relative cell growth: 0.181
[7]
  relative cell growth: 0.934 ± 0.16
[8]
  relative cell growth: 0.0919
[9]
  relative cell growth: 0.661 ± 0.37
[10]
  relative cell growth: 0.044
[11]
  relative cell growth: 0.177 ± 0.11
[12]
  relative cell growth: 0.0283

## OVCAR3
[1]
  relative cell growth: 0.907
[3]
  relative cell growth: 0.952
[5]
  relative cell growth: 0.919
[7]
  relative cell growth: 0.739
[9]
  relative cell growth: 0.372
[11]
  relative cell growth: 0.0464

## OVCAR4
[1]
  relative cell growth: 1.03
[3]
  relative cell growth: 1.01
[5]
  relative cell growth: 0.983
[7]
  relative cell growth: 0.875
[9]
  relative cell growth: 0.858
[11]
  relative cell growth: 0.633

## PANC1
[1]
  relative cell growth: 0.969
[3]
  relative cell growth: 0.974
[5]
  relative cell growth: 0.956
[7]
  relative cell growth: 0.92
[9]
  relative cell growth: 0.741
[11]
  relative cell growth: 0.411

## PC3
[1]
  relative cell growth: 1.04
[3]
  relative cell growth: 1
[5]
  relative cell growth: 0.971
[7]
  relative cell growth: 0.781
[9]
  relative cell growth: 0.532
[11]
  relative cell growth: 0.262

## PLCPRF5
[1]
  relative cell growth: 1.01
[3]
  relative cell growth: 0.969
[5]
  relative cell growth: 0.974
[7]
  relative cell growth: 0.898
[9]
  relative cell growth: 0.807
[11]
  relative cell growth: 0.586

## RAMOS
[1]
  relative cell growth: 1.06
[3]
  relative cell growth: 0.987
[5]
  relative cell growth: 0.927
[7]
  relative cell growth: 0.736
[9]
  relative cell growth: 0.377
[11]
  relative cell growth: 0.129

## RD
[1]
  relative cell growth: 0.929
[3]
  relative cell growth: 0.97
[5]
  relative cell growth: 0.942
[7]
  relative cell growth: 0.94
[9]
  relative cell growth: 0.826
[11]
  relative cell growth: 0.455

## RDES
[1]
  relative cell growth: 0.935
[3]
  relative cell growth: 0.961
[5]
  relative cell growth: 0.971
[7]
  relative cell growth: 0.785
[9]
  relative cell growth: 0.57
[11]
  relative cell growth: 0.24

## SAOS2
[1]
  relative cell growth: 0.945
[3]
  relative cell growth: 0.983
[5]
  relative cell growth: 0.946
[7]
  relative cell growth: 0.82
[9]
  relative cell growth: 0.458
[11]
  relative cell growth: 0.0757

## SF268
[1]
  relative cell growth: 1.01
[3]
  relative cell growth: 0.994
[5]
  relative cell growth: 0.943
[7]
  relative cell growth: 0.867
[9]
  relative cell growth: 0.747
[11]
  relative cell growth: 0.516

## SF295
[1]
  relative cell growth: 1.03
[3]
  relative cell growth: 1.01
[5]
  relative cell growth: 0.992
[7]
  relative cell growth: 0.945
[9]
  relative cell growth: 0.54
[11]
  relative cell growth: 0.209

## SKBR3
[1]
  relative cell growth: 0.938
[3]
  relative cell growth: 1.03
[5]
  relative cell growth: 1.03
[7]
  relative cell growth: 0.89
[9]
  relative cell growth: 0.523
[11]
  relative cell growth: 0.0447

## SKLMS1
[1]
  relative cell growth: 0.903
[3]
  relative cell growth: 0.977
[5]
  relative cell growth: 0.896
[7]
  relative cell growth: 0.593
[9]
  relative cell growth: 0.435
[11]
  relative cell growth: 0.169

## SKMEL5
[1]
  relative cell growth: 1.07
[3]
  relative cell growth: 1.07
[5]
  relative cell growth: 1.11
[7]
  relative cell growth: 1.08
[9]
  relative cell growth: 0.72
[11]
  relative cell growth: 0.202

## SKMEL28
[1]
  relative cell growth: 1
[3]
  relative cell growth: 1.02
[5]
  relative cell growth: 0.902
[7]
  relative cell growth: 0.746
[9]
  relative cell growth: 0.648
[11]
  relative cell growth: 0.477

## SUDHL6
[1]
  relative cell growth: 0.943
[3]
  relative cell growth: 0.915
[5]
  relative cell growth: 0.816
[7]
  relative cell growth: 0.254
[9]
  relative cell growth: -0.0283
[11]
  relative cell growth: -0.0413

## SUDHL10
[1]
  relative cell growth: 1.01
[3]
  relative cell growth: 1.01
[5]
  relative cell growth: 1.02
[7]
  relative cell growth: 1.12
[9]
  relative cell growth: 1.12
[11]
  relative cell growth: 0.345
